Assay results published in article PMC9014415, “Repositioning of a Diaminothiazole Series Confirmed to Target the Cyclin-Dependent Kinase CRK12 for Use in the Treatment of African Animal Trypanosomiasis” (Journal of Medicinal Chemistry, 2022).

Key:
T. vivax (STIB719) = test: Cattle efficacy for compound 2, intravenous infusion (Clinvet), T. vivax; assay type: in vivo, Trypanosoma vivax; settings: Friesian-Holstein cattle infected with T. vivax; n = 4; at 100 days
Description: Unfortunately, an injection site tolerability issue arose during the pharmacokinetic study in cattle that was not evident in rats. […] To circumvent these issues, compound 2 was assessed in an in vivo proof of concept efficacy study in Friesian-Holstein cattle using an IV infusion regimen. The study was conducted in four animals infected with T. congolense (KONT2/133) and four animals infected with T. vivax (STIB719). Three additional animals infected with each strain formed the vehicle control groups and were dosed IV once daily with saline. Pharmacokinetic modeling was used to define a dosing regimen that mimics the blood concentration–time profile that delivered cure in mice (10 mg/kg SC once daily for 2 days, with a Ctrough of >20 ng/mL (>38 nM)). A continuous infusion over 36 h and two loading doses 24 h apart were required. […]
Response to treatment was determined by monitoring parasitaemia twice a week until day 21. […]
In each of the cattle efficacy studies (3.3, 3.4 and 3.5), efficacy was assessed primarily on absence of recrudescence of parasitaemia for 100 days after treatment administration together with improvements in Packed Cell Volume, body weight and clinical signs of infected compared with uninfected animals. […]

[1] = Comparative cattle PK, IM compared to SC (NorthWest Biopharm); assay type: in vivo; settings: Aberdeen Angus crossbreed and Limousin crossbreed, bovine, blood, 5 mg/kg free base
Description: Kolliphor EL, N-methyl pyrrolidone, 2-pyrrolidone and 11% water suitable for injection) […]
Comparative cattle PK (Northwestern Biopharm)
The pharmacokinetics for compound 2 when dosed as free base in the best tolerated formulation: […]
Kolliphor EL, N-methyl pyrrolidone, 2-pyrrolidone and 11% water at 5 mg/kg was assessed, IM
compared to SC. Bioanalysis of blood
samples was conducted at the University of Dundee. […]

[2] = Injection site tolerance in the IM efficacy study in African cattle; assay type: in vivo; settings: free base in Kolliphor EL, NMP, 2-pyrrolidone, 11% water
Description: Compound 2 was only partially curative for cattle infected with T. congolense following two doses (1/4 and 2/4 in different treatment arms), administered 15 h apart (Table 4, Table S8, and Figure S9a). The curative regimen aligned well with PK/PD data from mice. However, cattle infected with T. vivax and dosed IM were not cured despite the fact that PK data from some T. vivax-infected cattle (Table 4, Table S9, and Figure S9b) predicted that a dosing at this level should have been curative based on mouse data. This lack of efficacy at exposures expected to deliver a cure is even more perplexing when the metabolism of compound 2 is considered. […] The rate and extent of this metabolism is higher in T. vivax-infected animals compared to those infected with T. congolense (Table S10) for reasons that are not clear.

Structure (SMILES): CC(C)CS(=O)(=O)N[C@H]1CC[C@H](Nc2nc(N)c(C(=O)c3c(F)cc(CN(C)C)cc3F)s2)CC1 [Compound 2, N-(trans)-[4-[[4-Amino-5-[4-(dimethylaminomethyl)-2,6-difluoro-benzoyl]thiazol-2-yl]amino]cyclohexyl]-2-methyl-propane-1-sulfonamide]
- Efficacy in cattle, IV bolus and infusion (T. vivax (STIB719)): cured
- AUC ([1]; IM): 3170 ng·h/mL
- Cmax ([1]; IM): 360 ng/mL
- Tmax ([1]; IM): 0.5 h
- AUC ([1]; SC): 967 ng·h/mL
- Cmax ([1]; SC): 86 ng/mL
- Tmax ([1]; SC): 3 h
- Injection site tolerance [2]: injection site tolerance issues
